Three substances from publication PMC4063695, “Design of Embedded-Hybrid Antimicrobial Peptides with Enhanced Cell Selectivity and Anti-Biofilm Activity” (PLoS ONE, 2014) can be followed below.

Like-named read-outs stand apart in the source and are kept apart here. No end group written: not given here.

The subject of one series is E. coli UB1005. The source says: (§1) E. coli ATCC25922, P. aeruginosa ATCC27853, S. aureus ATCC29213, S. epidermidis ATCC12228, S. faecalis ATCC29212 and B. subtilis CMCC63501 were obtained from the College of Veterinary Medicine, Northeast Agricultural University (Harbin, China), E. coli K88, E. coli CVCC1515 and P. aeruginosa ATCC15442 were bestowed by Prof. J.H. Wang (Gene Engineering Laboratory, Feed Research Institute, Chinese Academy of Agricultural Sciences Beijing, China) and E. coli UB1005 was kindly provided by Prof. Q.S. Qi (State Key Laboratory of Microbial Technology, Shandong University, China). […] Briefly, 50 µl of approximate 0.5–1 × 10^6 colony forming units (CFU)/ml of cells were diluted in Mueller-Hinton broth and distributed to 96-well plate, 50 µl of twofold peptides were added and the plates was incubated at 37°C for 18–24 h. The MIC values were calculated as the lowest peptide concentration that prevented visible turbidity and negative control of the pure broth without microbes. The tests were performed at least three times in duplicate.

A further series concerns P. aeruginosa ATCC15442.
Text: as §1

A further series has as its system S.aureus ATCC29213.
Text: as §1

Another series deals with S. pullorum C79-13.
Text: as §1

Another series has as its system S. typhimurium ATCC14028.
Text: as §1

The next series deals with E. coli CVCC1515.
Text: as §1

Another series has as its system P. aeruginosa variant 1. The following applies: P. aeruginosa variant 1, obtained by step-wise culture with ciprofloxacin hydrochloride; MHB, 37°C, 18-24 h.
Text: as §1

In a further series the test system is B. subtilis CMCC63501.
Text: as §1

Another series has as its system P. aeruginosa variant 2. The following applies: P. aeruginosa variant 2, obtained by step-wise culture with gentamicin; MHB, 37°C, 18-24 h.
Text: as §1

In another series the test system is E. coli ATCC25922.
Text: as §1

For the next series, the system named is E. coli K88. To be noted: MHB, 37°C, 18-24 h, at least three times in duplicate.
Text: as §1

A further series deals with P. aeruginosa ATCC27853.
Text: as §1

For another series, the system named is S.epidermidis ATCC12228.
Text: as §1

In the next series the test system is S.faecalis ATCC29212.
Text: as §1

A short description of series [1]: Circular dichroism, secondary structure. In kind it is physicochemical. To be noted: 30 mM SDS micelles; 150 µM peptide. How it is done:
The CD spectra were measured with a CD spectropolarimeter (Jasco, J-820, Tokyo, Japan) at 25°C, using a 0.1 cm path length rectangular quartz cell. The spectra were recorded at between 190 and 250 nm at 10 nm/min scanning speed. At least three scans were conducted for each peptide sample.
The acquired CD spectra were converted to the mean residue ellipticity through the following equation: [drawing 1]
where θM is the mean residue ellipticity [deg.cm2.dmol-1], θobs is the observed ellipticity corrected for the buffer at a given wavelength [mdeg], c is the peptide concentration [mM], l is the path length [mm], and n is the number of amino acids.
The percentage of α-helical structure was calculated as followings: [drawing 2]
where [θ]222 is the experimentally observed mean residue ellipticity at 222 nm, and values for [θ]^0 and [θ]^100 which correspond to 0 and 100% a-helix content at 222 nm, are estimated to be −2000 and −32000, respectively, [29].
On the technique in general: Circular dichroism is widely used to follow secondary structure.

Series [2] deals with Gram-negative and Gram-positive strains. Description: MIC over all tested strains (range, geometric mean). In kind it is cell-based. More on the design: GM (geometric mean of MIC values from all microbial strains): unit not given here. The following applies: for GM (geometric mean of MIC values from all microbial strains): all strains of Table 2.
Text: as §1

Series [3] has as its system human red blood cells (hRBC). As to the kind of experiment: Hemolytic activity. Type of series: cell-based. How it is done:
The amount of released hemoglobin by the lysis of erythrocytes was measured for hemolytic activity of peptides. Human erythrocytes were obtained from a healthy donor with written informed consent. The experimental protocol was reviewed and approved by the ethics committee of the Northeast Agricultural University Hospital. The measurement was based on a previously described method. The fresh hRBCs were washed three times by centrifugation (1000 g, 5 min, 4°C) in PBS (pH 7.4), and then resuspended in PBS to obtain the erythrocyte with a dilution of approximately 1% (v/v). Then, 50 µL of hRBCs solution was incubated with 50 µL of different concentrations of the peptides dissolved in PBS for 1 h at 37°C, before centrifugation (1000 g, 5 min, 4°C) again. The absorbance of the supernatants was measured at optical density (OD) 492 nm. […] The control samples for 0% and 100% hemolysis consisted of hRBCs in PBS (Ablank) only and in 0.1% Triton X-100 (Atriton), respectively. The percentage of hemolysis was calculated according to the following equation: [drawing 3]

[4] abbreviates: E. coli UB1005, MHB, 37°C, 18-24 h, at least three times in duplicate.
Where [5] appears, read: P. aeruginosa ATCC15442, MHB, 37°C, 18-24 h, at least three times in duplicate.
[6] abbreviates: S.aureus ATCC29213, MHB, 37°C, 18-24 h, at least three times in duplicate.
Setting [7] is: S. pullorum C79-13, MHB, 37°C, 18-24 h, at least three times in duplicate.
The mark [8] stands for this setting: S. typhimurium ATCC14028, MHB, 37°C, 18-24 h, at least three times in duplicate.
The mark [9] stands for this setting: E. coli CVCC1515, MHB, 37°C, 18-24 h, at least three times in duplicate.
[10] abbreviates: B. subtilis CMCC63501, MHB, 37°C, 18-24 h, at least three times in duplicate.
[11] abbreviates: E. coli ATCC25922, MHB, 37°C, 18-24 h, at least three times in duplicate.
Where [12] appears, read: P. aeruginosa ATCC27853, MHB, 37°C, 18-24 h, at least three times in duplicate.
Setting [13] is: S.epidermidis ATCC12228, MHB, 37°C, 18-24 h, at least three times in duplicate.
Where [14] appears, read: S.faecalis ATCC29212, MHB, 37°C, 18-24 h, at least three times in duplicate.
Setting [15] is: minimum concentration that caused 5% hemolysis of hRBC (footnote), 1% hRBC in PBS pH 7.4, 1 h, 37°C, OD 492 nm.

For FRIRVRV-NH2 [FV7, reference compound], the minimal inhibitory concentration (MIC) (as a rule, the least concentration at which growth counts as inhibited) with E. coli UB1005 (UB1005) was 32 µM; against P. aeruginosa ATCC15442 (ATCC15442), 16 µM; against S.aureus ATCC29213 (ATCC29213), 64 µM; with S. pullorum C79-13 (C79-13), 128 µM; against S. typhimurium ATCC14028 (ATCC14028), 16 µM; against E. coli CVCC1515 (CVCC1515) it was 32 µM. In addition, the MIC with P. aeruginosa variant 1 stood at 8 µM; with B. subtilis CMCC63501 (CMCC63501) it was 16 µM; with P. aeruginosa variant 2 it was 16 µM; in the series with E. coli ATCC25922 (ATCC25922), 16 µM; in the series with E. coli K88 it was 16 µM; against P. aeruginosa ATCC27853 (ATCC27853), 16 µM. Moreover, the MIC against S.epidermidis ATCC12228 (ATCC12228) and against S.faecalis ATCC29212 (ATCC29212) was 32 µM throughout. The “secondary structure (in words)” value in [1] was “β-sheet”. Besides, in [2], the “GM (geometric mean of MIC values from all microbial strains)” value was determined as 29. In series [3] (pH 7.4), this substance showed an MHC above 256 µM.
As to RFRRLRKKTRKRLKKI-NH2 [RI16], the minimum inhibitory concentration (MIC) against E. coli UB1005 (setting [4]) is 128 µM; in the series with P. aeruginosa ATCC15442 (setting [5]) it was above 256 µM; with S.aureus ATCC29213 (setting [6]) it was 128 µM; in the series with S. pullorum C79-13 (setting [7]), 64 µM; with S. typhimurium ATCC14028 (setting [8]), 64 µM; in the series with E. coli CVCC1515 (setting [9]), 128 µM. Further, the MIC in the series on P. aeruginosa variant 1 was above 256 µM; against B. subtilis CMCC63501 (setting [10]) it was 64 µM; with P. aeruginosa variant 2, above 256 µM; against E. coli ATCC25922 (setting [11]), 128 µM; against E. coli K88 it was above 256 µM; against P. aeruginosa ATCC27853 (setting [12]), 128 µM. Moreover, the minimum inhibitory concentration (MIC) against S.epidermidis ATCC12228 (setting [13]) came out at 32 µM; with S.faecalis ATCC29212 (setting [14]) it was 128 µM. Further, the MHC in [3] (setting [15]) is recorded as above 256 µM.
As for RKKTRKR-NH2 [RR7], the minimum inhibitory concentration (MIC) with E. coli UB1005 (setting [4]), against P. aeruginosa ATCC15442 (setting [5]), in the series on S.aureus ATCC29213 (setting [6]), in the series on S. pullorum C79-13 (setting [7]), against S. typhimurium ATCC14028 (setting [8]) and against E. coli CVCC1515 (setting [9]) was above 256 µM throughout. The MIC in the series on P. aeruginosa variant 1, against B. subtilis CMCC63501 (setting [10]), with P. aeruginosa variant 2, in the series with E. coli ATCC25922 (setting [11]), in the series on E. coli K88 and in the series on P. aeruginosa ATCC27853 (setting [12]) was above 256 µM each time. Moreover, the minimum inhibitory concentration (MIC) against S.epidermidis ATCC12228 (setting [13]) and with S.faecalis ATCC29212 (setting [14]) was above 256 µM in each case. Besides, in series [2] (Gram-negative and Gram-positive strains), the “antimicrobial activity (in words)” value is reported as “poor antimicrobial activity”. Also, in [2], the “GM (geometric mean of MIC values from all microbial strains)” value was found to be 256. The same substance yielded an MHC in [3] (setting [15]) above 256 µM.
